In assay [1] the target is human CB1 receptor (hCB1) (Homo sapiens, UniProt P21554). As to the kind of experiment: cell-based. Format: cell-based. The procedure, abridged:
(§1)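 Readout: LANCE TR-FRET cAMP, back-calculated from a concurrent standard curve and scaled between forskolin-only and forskolin + 1 μM CP55,940 wells. EC50 and intrinsic activity came from four-parameter fits.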

The target of the next assay is T1, rat CB2 receptor (rCB2) (Rattus norvegicus, UniProt Q9QZN9).
T1 sequence (Q9QZN9 1-360): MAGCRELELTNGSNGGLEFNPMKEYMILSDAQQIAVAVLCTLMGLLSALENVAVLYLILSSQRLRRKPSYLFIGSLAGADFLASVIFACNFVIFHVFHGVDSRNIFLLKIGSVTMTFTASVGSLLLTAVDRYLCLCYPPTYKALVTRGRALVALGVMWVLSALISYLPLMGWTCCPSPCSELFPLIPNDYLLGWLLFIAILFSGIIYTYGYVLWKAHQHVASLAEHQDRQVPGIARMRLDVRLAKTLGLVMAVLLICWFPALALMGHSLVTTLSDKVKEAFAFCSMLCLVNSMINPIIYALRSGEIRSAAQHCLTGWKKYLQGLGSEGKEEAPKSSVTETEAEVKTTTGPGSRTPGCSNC
In words: cell-based. Format: cell-based. Particulars: for +/− RCB2: agonist or inverse agonist at rCB2. The procedure, abridged: as §1

For orientation: EC50 means the concentration giving half of the maximal effect.

Molecules are shown by their SMILES. Where a name gives a salt, the structure may show the parent alone. Read-outs that look alike come from different tables or passages of the source.

Chain of human CB1 receptor (hCB1) (P21554 whole entry): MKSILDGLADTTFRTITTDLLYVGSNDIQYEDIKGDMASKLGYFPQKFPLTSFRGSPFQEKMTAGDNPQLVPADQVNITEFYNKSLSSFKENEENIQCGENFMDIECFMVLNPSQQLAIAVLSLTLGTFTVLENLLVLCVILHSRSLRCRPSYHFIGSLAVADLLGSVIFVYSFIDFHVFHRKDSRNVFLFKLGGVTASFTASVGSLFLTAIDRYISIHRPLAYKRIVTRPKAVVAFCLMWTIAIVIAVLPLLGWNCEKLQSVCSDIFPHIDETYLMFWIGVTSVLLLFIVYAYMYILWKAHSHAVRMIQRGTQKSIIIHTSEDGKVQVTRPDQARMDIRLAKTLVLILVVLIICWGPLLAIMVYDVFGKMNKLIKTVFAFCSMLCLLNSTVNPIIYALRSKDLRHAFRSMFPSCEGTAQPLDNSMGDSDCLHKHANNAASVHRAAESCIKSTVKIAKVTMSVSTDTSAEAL

Take `CNC(=O)[C@@H](NC(=O)c1nc(-c2ccccc2)n2c1CN(CC1CC1)CC2)C(C)(C)C` [Compound 56, (S)-7-(cyclopropylmethyl)-N-(3,3-dimethyl-1-(methylamino)-1-oxobutan-2-yl)-3-phenyl-5,6,7,8-tetrahydroimidazo[1,5-a]pyrazine-1-carboxamide]: the EC50 in assay [1] was over 10000 nM. The “+/− RCB2” value on rat CB2 receptor (rCB2) is on record as “−”.
For `CC12CCC(C1)C(C)(C)C2NC(=O)c1nc(-c2ccccc2)n2c1CNCC2` (stereo not shown) [Compound 39, 3-Phenyl-N-(1,3,3-trimethylbicyclo[2.2.1]heptan-2-yl)-5,6,7,8-tetrahydro-imidazo[1,5-a]pyrazine-1-carboxamide HCl] the same measures were over 10000 nM and “+”.
For `COC(=O)[C@@H](NC(=O)c1nc(-c2ccccc2)n2c1CNCCC2)C(C)(C)C` [Compound 465, (S)-methyl 3,3-dimethyl-2-(3-phenyl-6,7,8,9-tetrahydro-5H-imidazo[1,5-a][1,4]diazepine-1-carboxamido)butanoate] the same measures were over 10000 nM and “+”.
For the compound `CC(C)(CO)CNC(=O)c1nc(-c2ccccc2)n2c1CNCC2` [Compound 29, N-(3-hydroxy-2,2-dimethylpropyl)-3-phenyl-5,6,7,8-tetrahydroimidazo[1,5-a]pyrazine-1-carboxamide], the EC50 in assay [1] (groups >100 nM-10 μM and >10 μM, cAMP, CHO-K1 hCB1, read-out: EC50 HCB1) was over 10000 nM. In addition, the “+/− RCB2” value at rat CB2 receptor (rCB2) is on record as “−”.
On to `CNC(=O)[C@@H](NC(=O)c1nc(-c2ccco2)n2c1CNCC2)C(C)(C)C` [Compound 15, (S)-N-(3,3-dimethyl-1-(methylamino)-1-oxobutan-2-yl)-3-(furan-2-yl)-5,6,7,8-tetrahydroimidazo[1,5-a]pyrazine-1-carboxamide], for which the half-maximal effective concentration (EC50) in assay [1] was over 10000 nM. For the same compound, the “+/− RCB2” value at rat CB2 receptor (rCB2) is reported as “+”.
Turning to `CC(C)CN1CCn2c(-c3ccccc3)nc(C(=O)N[C@@H](C)c3ccccc3)c2C1` [Compound 145, (S)-7-isobutyl-3-phenyl-N-(1-phenylethyl)-5,6,7,8-tetrahydroimidazo[1,5-a]pyrazine-1-carboxamide], the concentration for a half-maximal effect (EC50) in assay [1] was over 10000 nM. For the same compound, on rat CB2 receptor (rCB2), the “+/− RCB2” value was “−”.
Regarding `CNC(=O)[C@@H](NC(=O)c1nc(C(O)C2CC2)n2c1CN(C)CC2)C(C)(C)C` (stereo partly drawn) [Compound 296, 3-(cyclopropyl(hydroxy)methyl)-N-((S)-3,3-dimethyl-1-(methylamino)-1-oxobutan-2-yl)-7-methyl-5,6,7,8-tetrahydroimidazo[1,5-a]pyrazine-1-carboxamide], in assay [1], the half-maximal effective concentration (EC50) is over 10000 nM. Further, on rat CB2 receptor (rCB2), the “+/− RCB2” value is given as “+”.
For `CC(C)(C)OC(=O)N1CCn2c(-c3ccccc3)nc(C(=O)NC3CCCCC3)c2C1` [Compound 36, tert-butyl 1-(cyclohexylcarbamoyl)-3-phenyl-5,6-dihydroimidazo[1,5-a]pyrazine-7(8H)-carboxylate], the 50% effective concentration (EC50) in assay [1] was over 10000 nM. The “+/− RCB2” value on rat CB2 receptor (rCB2) is “−”.
Regarding `CCC/C=C/c1nc(C(=O)N[C@H](C(=O)NC)C(C)(C)C)c2n1CCN(C)C2` [Compound 268, (S,E)-N-(3,3-dimethyl-1-(methylamino)-1-oxobutan-2-yl)-7-methyl-3-(pent-1-enyl)-5,6,7,8-tetrahydroimidazo[1,5-a]pyrazine-1-carboxamide], in assay [1] (agonist or inverse agonist at hCB1), the “+/− HCB1” value is given as “+”. This compound also came in with an EC50 on rat CB2 receptor (rCB2) of over 10 µM.
For `CNC(=O)[C@@H](NC(=O)c1nc(C2CCC(C)CC2)n2c1CN(C)CCC2)C(C)(C)C` (stereo partly drawn) [Compound 499, (S)-N-(3,3-dimethyl-1-(methylamino)-1-oxobutan-2-yl)-8-methyl-3-(4-methylcyclohexyl)-6,7,8,9-tetrahydro-5H-imidazo[1,5-a][1,4]diazepine-1-carboxamide], in assay [1], the EC50 is over 10000 nM. Moreover, the “+/− RCB2” value at rat CB2 receptor (rCB2) is on record as “+”.
The corresponding values for `C/C=C/c1nc(C(=O)N[C@H](C(=O)NC)C(C)(C)C)c2n1CCCN(C)C2` [Compound 376, (S,E)-N-(3,3-dimethyl-1-(methylamino)-1-oxobutan-2-yl)-8-methyl-3-(prop-1-enyl)-6,7,8,9-tetrahydro-5H-imidazo[1,5-a][1,4]diazepine-1-carboxamide] are over 10000 nM and “+”.

Source of the values: US7517874B2 (priority 2007, dated 2009).
